Test results reported in US4871774A, “Medical treatment” (The Boots Company PLC, priority 1987, dated 1989).

Tested on: dopamine reuptake; unilateral nigrostriatal lesioned rats
Assay: Ipsilateral circling behaviour of unilateral nigrostriatal (6-OHDA) lesioned rats
Format: in vivo, rat (CD)
Conditions: methamphetamine challenge 2 mg/kg intraperitoneal; selected rats
Text: The two tracts of the nigrostriatal dopamine system are independent and are located on either side of the midline of the brain. When one tract is destroyed using the specific neurotoxin, 6-hydroxydopamine (6-OHDA), rats will display characteristic circling behaviour after injection of dopaminergic drugs. The direction of rotation, however, is dependent on the stimulus employed. Drugs which inhibit dopamine reuptake can only function on the unlesioned side of the brain and induce circling towards the lesion site (known as ipsilateral circling.)
Male CD rats (250-300 g: Charles River) were anaesthetised with `Equithesin` type anaesthetic (3.2 ml/kg i.p.) and secured in a stereotaxic frame (David Kopf Small Animal Stereotaxic Instrument DKI 900). After shaving the area, a saggital incision of 1.5-2 cm was made and skin flaps dissected from the skull. A small hole was made in the skull, using a No. 6 dental burr, to allow the tip of a 30 s.w.g. stainless steel cannula to be inserted to the left substantia nigra. This was located by using the following co-ordinates, using skull landmark bregma as the zero reference point; rostral-caudal -2.8; medial-lateral +2.0; dorsal-ventral -8.0 from the surface of the dura, all co-ordinates measured in millimetres. This system of co-ordinates is a modification of the de Groot system as described by Pellegrino et al (A stereotaxic atlas of the rat brain, 2nd Edition, Plenum Press 1979). 6-Hydroxydopamine HBr (2 μg/μl, as base: Sigma Chemical Co.) was injected into the left substantia nigra at 1 μl/min; a total of 8 μg was administered over a period of 4 minutes using an infusion pump (Braun `Perfusor` ED2). After removal of the cannula, the skin flaps were joined with a single everted suture and the animal allowed to recover.
After 21 days, the circling behaviour of the rats was examined. They were placed, individually, in circular plastic arenas (30 cm diameter×12 cm high) for 1 hour, with no access to food or water during this period. […] One `turn` consisted of rotation through 360° in either direction. As rats were always lesioned on the left side of the brain, anticlockwise turns were ipsilateral.
Control values were determined for all rats by observing their spontaneous circling behaviour in the arenas without prior dosing. The mean turns per minute was always less than 1.
The rats were challenged with an intraperitoneal dose of methamphetamine (2 mg/kg) and immediately placed in the arenas. In these experiments circling behaviour was monitored during two periods, 0-1 h and 4-5 h after dosing. Rats giving a mean of more than 5 ipsilateral turns per minute during the first hour in response to methamphetamine were used in subsequent tests. Following selection, the rats were used in groups of 5 or more rats to test the drug under investigation.

With `CN[C@@H](C)Cc1ccccc1` [methamphetamine, reference compound] the “mean response of the group, ipsilateral turns per minute” value was “more than 10 ipsilateral turns per minute”.
